From the supplement of paper PMC10307832

What was measured:
Experiment in all cases: relative viability (nuclei count vs DMSO), 5 days (fraction); higher = more cells survive
A-427 = system: A-427
Procedure, shortened: (§1)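 Dosing by pin tool came one day after lung cancer cell lines were seeded in 1536-well plates, using either one drug or a fixed anchor-drug dose plus five library-drug doses (not always all listed) in √10 steps. After 5 days, nuclei were counted on 4× images. Relative viability is treated-well nuclei count divided by vehicle-well nuclei count, and values are medians of duplicate plates.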

COR-L 105 = system: COR-L 105
Procedure, shortened: as §1

ChaGo-K-1 = system: ChaGo-K-1
Procedure, shortened: as §1

EKVX = system: EKVX
Procedure, shortened: as §1

EMC-BAC-2 = system: EMC-BAC-2
Procedure, shortened: as §1

H3255 = system: H3255
Procedure, shortened: as §1

HCC-366 = system: HCC-366
Procedure, shortened: as §1

LK-2 = system: LK-2
Procedure, shortened: as §1

LOU-NH91 = system: LOU-NH91
Procedure, shortened: as §1

NCI-H1563 = system: NCI-H1563
Procedure, shortened: as §1

NCI-H1666 = system: NCI-H1666
Procedure, shortened: as §1

With O=c1cc(N2CCOCC2)oc2c(-c3cccc4c3sc3ccccc34)cccc12 + CS(=O)(=O)N1CCN(Cc2cc3nc(-c4cccc5[nH]ncc45)nc(N4CCOCC4)c3s2)CC1 [Pictilisib] (partner 1 µM) the relative viability (A-427; first compound 0.01 µM) was 0.902, the relative viability (A-427; first compound 0.03162 µM) was 0.8 and the relative viability (A-427; first compound 0.1 µM) was 0.68. For the same compound, the relative viability (A-427; first compound 0.3162 µM) was 0.635, the relative viability (A-427; first compound 1 µM) was 0.742 and the relative viability (COR-L 105; first compound 0.01 µM) was 0.347. For the same compound, the relative viability (COR-L 105; first compound 0.03162 µM) was 0.394, the relative viability (COR-L 105; first compound 0.1 µM) was 0.49 and the relative viability (COR-L 105; first compound 0.3162 µM) was 0.422. It also gave a relative viability (COR-L 105; first compound 1 µM) of 0.439, a relative viability (ChaGo-K-1; first compound 0.01 µM) of 0.648 and a relative viability (ChaGo-K-1; first compound 0.03162 µM) of 0.791. The relative viability (ChaGo-K-1; first compound 0.1 µM) was 0.448, the relative viability (ChaGo-K-1; first compound 0.3162 µM) was 0.901 and the relative viability (ChaGo-K-1; first compound 1 µM) was 0.663. It also gave a relative viability (EKVX; first compound 0.01 µM) of 0.418, a relative viability (EKVX; first compound 0.03162 µM) of 0.496 and a relative viability (EKVX; first compound 0.1 µM) of 0.507. The relative viability (EKVX; first compound 0.3162 µM) was 0.439, the relative viability (EKVX; first compound 1 µM) was 0.431 and the relative viability (EMC-BAC-2; first compound 0.01 µM) was 0.372. It also gave a relative viability (EMC-BAC-2; first compound 0.03162 µM) of 0.518, a relative viability (EMC-BAC-2; first compound 0.1 µM) of 0.559 and a relative viability (EMC-BAC-2; first compound 0.3162 µM) of 0.574. The relative viability (EMC-BAC-2; first compound 1 µM) was 0.517, the relative viability (H3255; first compound 0.01 µM) was 0.5 and the relative viability (H3255; first compound 0.03162 µM) was 0.513. The relative viability (H3255; first compound 0.1 µM) was 0.48, the relative viability (H3255; first compound 0.3162 µM) was 0.45 and the relative viability (H3255; first compound 1 µM) was 0.416. The relative viability (HCC-366; first compound 0.01 µM) was 0.197, the relative viability (HCC-366; first compound 0.03162 µM) was 0.154 and the relative viability (HCC-366; first compound 0.1 µM) was 0.1. For the same compound, the relative viability (HCC-366; first compound 0.3162 µM) was 0.154, the relative viability (HCC-366; first compound 1 µM) was 0.137 and the relative viability (LK-2; first compound 0.01 µM) was 0.676. For the same compound, the relative viability (LK-2; first compound 0.03162 µM) was 0.562, the relative viability (LK-2; first compound 0.1 µM) was 0.615 and the relative viability (LK-2; first compound 0.3162 µM) was 0.578. It also gave a relative viability (LK-2; first compound 1 µM) of 0.64, a relative viability (LOU-NH91; first compound 0.01 µM) of 0.476 and a relative viability (LOU-NH91; first compound 0.03162 µM) of 0.533. The relative viability (LOU-NH91; first compound 0.1 µM) was 0.525, the relative viability (LOU-NH91; first compound 0.3162 µM) was 0.514 and the relative viability (LOU-NH91; first compound 1 µM) was 0.531. The relative viability (NCI-H1563; first compound 0.01 µM) was 0.626, the relative viability (NCI-H1563; first compound 0.03162 µM) was 0.634 and the relative viability (NCI-H1563; first compound 0.1 µM) was 0.659. It also gave a relative viability (NCI-H1563; first compound 0.3162 µM) of 0.57, a relative viability (NCI-H1563; first compound 1 µM) of 0.559 and a relative viability (NCI-H1666; first compound 0.01 µM) of 0.443. The relative viability (NCI-H1666; first compound 0.03162 µM) was 0.483.
